US6238873A, “Methods of screening for agonists and antagonists of the interaction between the human KIAA0001 receptor and ligands thereof” (Smithkline Beecham Corporation, priority 1999, dated 2001)

Key:
[1] = molecular target: T1, human KIAA0001 receptor (Homo sapiens, UniProt Q15391); test: Specificity of response: nucleotide di-phosphate sugar spotted onto agar plate infused with yeast carrying human KIAA0001 receptor and FUS1-LacZ reporter; assay type: cell-based; details: 10 nmoles (1 microliter of 10 mM solution) spotted onto agar plate
T1 sequence (Q15391 1-338): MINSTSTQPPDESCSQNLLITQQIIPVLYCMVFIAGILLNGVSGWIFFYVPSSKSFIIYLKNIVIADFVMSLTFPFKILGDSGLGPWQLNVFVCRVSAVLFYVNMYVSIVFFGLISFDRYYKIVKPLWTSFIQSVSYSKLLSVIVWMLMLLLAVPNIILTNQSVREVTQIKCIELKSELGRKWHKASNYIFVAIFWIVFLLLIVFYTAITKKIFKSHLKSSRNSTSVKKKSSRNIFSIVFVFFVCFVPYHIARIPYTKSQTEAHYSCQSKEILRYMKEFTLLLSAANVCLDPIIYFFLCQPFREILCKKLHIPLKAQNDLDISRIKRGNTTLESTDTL
Method: The specificity of this response was determined by spotting 10 nmoles (1 microliter of 10 mM solution) of each nucleotide di-phosphate sugar onto an agar plate infused with a yeast strain carrying the human KIAA0001 receptor and the FUS1-LacZ reporter, as described above.

[2] = molecular target: T1, human KIAA0001 receptor; details: FUS1-LacZ yeast expressing human KIAA0001 receptor

SMILES: Nc1ncnc2c1ncn2[C@@H]1O[C@H](COP(=O)(O)OP(=O)(O)O[C@H]2O[C@H](CO)[C@@H](O)[C@H](O)[C@H]2O)[C@@H](O)[C@H]1O [ADP-glucose]
- response on agar plate (FUS1-LacZ reporter) [1]: failed to produce a response

SMILES: Nc1ncnc2c1ncn2[C@@H]1O[C@H](COP(=O)(O)OP(=O)(O)O[C@H]2O[C@H](CO)[C@@H](O)[C@H](O)[C@@H]2O)[C@@H](O)[C@H]1O [ADP-mannose]
- response on agar plate (FUS1-LacZ reporter) [1]: failed to produce a response

SMILES: Nc1ncnc2c1ncn2[C@@H]1O[C@H](COP(=O)(O)OP(=O)(O)OC[C@H]2OC(O)[C@H](O)[C@@H]2O)[C@@H](O)[C@H]1O (stereo partly drawn) [ADP-ribose]
- response on agar plate (FUS1-LacZ reporter) [1]: failed to produce a response

SMILES: Nc1ccn([C@@H]2O[C@H](COP(=O)(O)OP(=O)(O)O[C@H]3O[C@H](CO)[C@@H](O)[C@H](O)[C@H]3O)[C@@H](O)[C@H]2O)c(=O)n1 [CDP-glucose]
- response on agar plate (FUS1-LacZ reporter) [1]: failed to produce a response

SMILES: C[C@@H]1O[C@H](OP(=O)(O)OP(=O)(O)OC[C@H]2O[C@@H](n3cnc4c(=O)[nH]c(N)nc43)[C@H](O)[C@@H]2O)[C@@H](O)[C@H](O)[C@@H]1O [GDP-fucose]
- response on agar plate (FUS1-LacZ reporter) [1]: failed to produce a response

SMILES: Nc1nc2c(ncn2[C@@H]2O[C@H](COP(=O)(O)OP(=O)(O)O[C@H]3O[C@H](CO)[C@@H](O)[C@H](O)[C@H]3O)[C@@H](O)[C@H]2O)c(=O)[nH]1 [GDP-glucose]
- response on agar plate (FUS1-LacZ reporter) [1]: failed to produce a response

SMILES: Nc1nc2c(ncn2[C@@H]2O[C@H](COP(=O)(O)OP(=O)(O)O[C@H]3O[C@H](CO)[C@@H](O)[C@H](O)[C@@H]3O)[C@@H](O)[C@H]2O)c(=O)[nH]1 [GDP-mannose]
- response on agar plate (FUS1-LacZ reporter) [1]: failed to produce a response

SMILES: Cc1cn([C@H]2C[C@H](O)[C@@H](COP(=O)(O)OP(=O)(O)O[C@H]3O[C@H](CO)[C@@H](O)[C@H](O)[C@H]3O)O2)c(=O)[nH]c1=O [TDP-glucose]
- response on agar plate (FUS1-LacZ reporter) [1]: failed to produce a response

SMILES: CC(=O)N[C@H]1[C@@H](OP(=O)(O)OP(=O)(O)OC[C@H]2O[C@@H](n3ccc(=O)[nH]c3=O)[C@H](O)[C@@H]2O)O[C@H](CO)[C@@H](O)[C@@H]1O [UDP-N-acetyl glucosamine]
- response on agar plate (FUS1-LacZ reporter) [1]: positive response
- response determined by expression of -galactosidase [2]: receptor-dependentresponse

SMILES: O=C(O)[C@H]1O[C@H](OP(=O)(O)OP(=O)(O)OC[C@H]2O[C@@H](n3ccc(=O)[nH]c3=O)[C@H](O)[C@@H]2O)[C@H](O)[C@@H](O)[C@@H]1O [UDP-glucuronic acid]
- response on agar plate (FUS1-LacZ reporter) [1]: positive response
- response determined by expression of -galactosidase [2]: receptor-dependentresponse
